# According to the OPERA property sets (Mansouri et al. 2018):
# Conditions: not given
SMILES,melting point [°C],boiling point [°C],log10 biodegradation half-life (days),log10 vapour pressure (mmHg),ready biodegradability,log10 Koa,logP,log10 Koc (L/kg),log10 Henry constant (atm·m³/mol)
Cc1cccc(N=Nc2ccc(N(C)C)cc2)c1,138,,,,,,,,
O=C1C(O)=C(Cl)C(=O)c2ccccc21,216,,,,,,,,
CCC(Br)C(Br)Br (stereo not given),,216,,,,,,,
O=[N+]([O-])c1ccc(Oc2ccc(C(F)(F)F)cc2[N+](=O)[O-])cc1,94,,,,,,,,
O=C1CCCCCCN1,36.5,,,,,,,,
CCCCNCC(=O)Nc1c(C)cccc1Cl,45.5,,,,,,,,
Fc1ccc(Br)cc1Br,69,,,,,,,,
CCCC(CC)CC,,119,0.602,1.3,,,,,
CCCCC(CC)COC(=O)CCCCCCCC(=O)OCC(CC)CCCC (stereo not given),-78,,,,readily biodegradable,,,,
c1ccc2cc(Nc3ccc(Nc4ccc5ccccc5c4)cc3)ccc2c1,235,,,,,,,,
O=C(Cl)C(Cl)Cl,,108,,1.36,,,,,
COc1cc(C)c(/C=C/C(C)=C/C=C/C(C)=C/C(=O)O)c(C)c1C,229,,,,,,,,
COc1cc(C=O)cc(OC)c1,46.3,,,,,,,,
O=[N+]([O-])c1ccc(O)c(F)c1,121,,,,,,,,
Oc1ccc(C2CCCCC2)cc1Cl,40.5,,,,,,,,
CC[C@H](C)C(C)(C)C,-112,110,,1.51,,,,,
CN1C(=O)C(=NNC(N)=S)c2ccccc21,245,,,,,,,,
O=C(O)c1cccc(-c2ccccc2)c1O,186,,,,,,,,
CCOC(=O)C(C(=O)OCC)=C(C(=O)OCC)C(=O)OCC,58,,,,,,,,
Cc1ccc(C=O)cc1,-6,204,,-0.602,readily biodegradable,,,,
O=NN1CCCCC1,,219,,,,,,,
CC(C)CCC[C@@H](C)[C@H]1CC[C@H]2[C@@H]3CC=C4C=CCC[C@]4(C)[C@H]3CC[C@]12C,80,,,,,,,,
CC1CS(=O)(=O)CCN1N=Cc1ccc([N+](=O)[O-])o1 (stereo not given),181,,,,,,,,
O=C(O)[C@@H]1CCCO1,21,,,,,,,,
CO[C@H]1C=CC2=CCN3CCC4=C(CC(=O)OC4)[C@]23C1,99.5,,,,,,,,

SMILES,melting point [°C],boiling point [°C],log10 biodegradation half-life (days),log10 vapour pressure (mmHg),ready biodegradability,log10 Koa,logP,log10 Koc (L/kg),log10 Henry constant (atm·m³/mol)
CC(C)CCCO,,152,,,,,,,
O=Cc1ccccc1[N+](=O)[O-],43.5,,,-1.75,,,,,
CCc1cc(C(N)=S)ccn1,163,,,,,,,,
CC(=O)O[Si](C)(C)OC(C)=O,-12.5,165,,,,,,,
CC(C)(C)S(=O)(=O)O,113,,,,,,,,
CNC(=C[N+](=O)[O-])NCCSCc1csc(CN(C)C)n1,131,,,,,,,,
Brc1ccc(Oc2ccc(Br)cc2Br)cc1,,,,-6.17,,9.5,5.94,,
O=C1CCC(=O)CC1,78,,,,,,,,
CCC=CCC(=O)OCC,,166,,,,,,,
CC1(C)CCCC1,-69.8,87.5,1.28,1.88,,,,,
Oc1ccc2c(c1)CCC2,58,253,,,,,,3.4,
CCCCOCOCCCC,-58.1,179,,,,,,,
CC(=O)Nc1nc(=O)c2ncn(COCCOC(C)=O)c2[nH]1,204,,,,,,,,
CCO/N=C(\OC(=O)c1ccccc1)c1c(OC)ccc(Cl)c1OC,73,,,,,,,,
CCCCC(CC)CN1C(=O)C2C(C1=O)C1(C(C)C)C=CC2(C)CC1 (stereo not given),,,,,not readily biodegradable,,,,
CC(Oc1ccccc1Cl)C(=O)O (stereo not given),114,,,,,,,,
CN(C)Cc1c[nH]c2ccccc12,138,,,,,,,,
CC(Cl)C[N+](=O)[O-] (stereo not given),,172,,,,,,,
CN(C)CCCN1c2ccccc2CCc2ccc(Cl)cc21,190,,,,,,,,
CC1(C)CO1,,52,,,,,,,
CCCCCON=O,,104,,0.598,,,,,
c1ccc2[nH]ccc2c1,52.5,254,,-1.91,readily biodegradable,,,,
C=C1[C@H]2CC[C@@H]3[C@H]2C(C)(C)CCC[C@]13C,,258,,,,,,,
C=COCC(C)C,-112,83,,1.77,,,,,
COc1cc(O)c(C(=O)c2ccccc2)c(O)c1,130,,,,,,,,

SMILES,melting point [°C],boiling point [°C],log10 biodegradation half-life (days),log10 vapour pressure (mmHg),ready biodegradability,log10 Koa,logP,log10 Koc (L/kg),log10 Henry constant (atm·m³/mol)
O=C(Cl)c1ccccc1,-1,197,,-0.155,,,,,
CCOc1ccc([N+](=O)[O-])cc1,60,283,,,,,,,
C1=CCC=C1,-85,41,,2.64,,,,,
COCCOCCOCCOC,-45,216,,-1.39,,,,,
CCCC(=O)CCC,-33,144,,0.787,,,,,
S=c1sccs1,49,,,,,,,,
CC(O)(c1ccc(Cl)cc1)c1ccc(Cl)cc1,70,,,,,,,,
CCCN=C=O,,83.5,,,,,,,
O=C1c2ccccc2C(=O)C1(CN1CCOCC1)c1ccccc1,88,,,,,,,,
O=C(O)C(Br)C(Br)C(=O)O (stereo not given),,,,,not readily biodegradable,,,,
COC(=O)c1cc(Cl)ccc1[N+](=O)[O-],48.5,,,,,,,,
FC(F)(F)c1ccc(Cl)nc1,33,153,,,,,,,
Cc1cccc2c1cc(C)c1cccc(C)c12,,,1.92,,,,,,
Nc1ncnc2[nH]cnc12,,,,-10.4,,,,,
C=CCC1(C(C)C)C(=O)NC(=O)NC1=O,141,,,,,,,,
CC1=C[C@@H](O)[C@@H]2C[C@H]1C2(C)C (racemic),65,,,,,,,,
CN(C)S(=O)(=O)N(SC(F)(Cl)Cl)c1ccccc1,106,,,-6.95,not readily biodegradable,,,,
CN(C)N=Nc1nc[nH]c1C(N)=O,205,,,,,,,,
CC(C)(C)c1ccccc1O,-6.8,223,,-1.05,,,,,
CC(C)c1ccc(OP(=O)(Oc2ccc(C(C)C)cc2)Oc2ccc(C(C)C)cc2)cc1,,,,,not readily biodegradable,,,,
CCOC(=O)C(O)c1ccccc1 (stereo not given),35,,,,,,,,
CC(Cl)(Cl)[N+](=O)[O-],,124,,1.23,,,,,
O=C(NC(=O)c1c(F)cccc1F)Nc1cc(Cl)c(OC(F)(F)C(F)F)c(Cl)c1,204,,,,,,,,
CCCCCCCCCCCCCCCCC(=O)OC,30,,,,,,,,
CN,,-6.3,,3.42,readily biodegradable,1.9,,,-4.95

SMILES,melting point [°C],boiling point [°C],log10 biodegradation half-life (days),log10 vapour pressure (mmHg),ready biodegradability,log10 Koa,logP,log10 Koc (L/kg),log10 Henry constant (atm·m³/mol)
S=C=Nc1ccc(Br)cc1,60.5,,,,,,,,
COC(=O)C1(S(=O)(=O)c2ccc(Br)cc2)CC1,124,,,,,,,,
Cc1ccccc1Cc1ccccc1,6.6,280,,,,,,,
O=C(Nc1ccccc1)OCC1(COC(=O)Nc2ccccc2)CCCC1,152,,,,,,,,
COC(=O)c1cccc([N+](=O)[O-])c1,78,,,,,,,,
C=CCN(CC=C)C(=O)COC(=O)c1ccccc1,42.5,,,,,,,,
CCCCCCC#CC(=O)O,-8,,,,,,,,
CCC(=O)c1cc(C)ccc1O,2,,,,,,,,
CC(C)(N=C=O)c1cccc(C(C)(C)N=C=O)c1,,,,-2.49,,,,,
CCCCOCC1CO1 (stereo not given),,165,,0.505,readily biodegradable,,,,
O=S(=O)(Cl)c1ccc(I)cc1,85,,,,,,,,
Brc1cc(Br)c(Br)c(Br)c1Br,160,,,,,,,,
CC(C)CCN(CCC(C)C)CCC(C)C,,235,,,,,,,
CCCCCCCCCCCCCCCCCCl,,,,-4.34,,,,,
CCCC(C)CBr (stereo not given),,141,,,,,,,
C=COCCO,,142,,,,,,,
CC1(C)[C@@H]2CC(=O)[C@@](C)(O)[C@H]1C2,38.5,,,,,,,,
C=COC(=O)CCCCC,,,,,readily biodegradable,,,,
c1ccc2[nH]cnc2c1,170,,,,,,,,
O=C1CCC(=O)O1,119,261,,-2.82,,,,,
C=C1C=CC(C(C)C)CC1 (stereo not given),,172,,0.2,,,,,
CC1(C)OC(c2ccco2)CN1C(=O)C(Cl)Cl (stereo not given),97,,,-7.31,,,,,
O=C(O)c1cc(O)nc(O)n1,346,,,,,,,,
c1ccc(Cc2ccccc2)cc1,25.2,265,,-2.09,not readily biodegradable,,,,
O=c1c2ccccc2oc2ccccc12,174,351,,,,,,,

SMILES,melting point [°C],boiling point [°C],log10 biodegradation half-life (days),log10 vapour pressure (mmHg),ready biodegradability,log10 Koa,logP,log10 Koc (L/kg),log10 Henry constant (atm·m³/mol)
CCCCCCC(=O)Cl,-83.8,145,,-0.35,,,,,
ClCC(Cl)Cl,-36.6,114,,1.36,not readily biodegradable,3.4,,1.89,-3.08
CO[C@@H]1C=C[C@@]23c4cc5c(cc4CO[C@]2(O)CN(C)[C@H]3C1)OCO5,210,,,,,,,,
CN(C)C(=O)CCCOC(=O)c1ccccc1,40.5,,,,,,,,
O=C(Cl)c1ccccc1O,19,,,,,,,,
OCCOCCOCCO,-7,285,,,readily biodegradable,,,,
CC1=C(C)C(=O)C=CC1=O,55,,,,,,,,
O=S(=O)(O)c1ccc(-c2ccc(S(=O)(=O)O)cc2)cc1,72.5,,,,,,,,
C=C[C@H](C)O,,96.5,,,,,,,
CB(C)C,-162,-20.2,,,,,,,
C=C(C)C(=O)OCCN(CC)CC,,,,,readily biodegradable,,,,
CC(C)=CCCc1ccoc1,,186,,,,,,,
CCC(=O)C(C)C,,114,,1.26,,,,,
Clc1ccccc1NNc1ccccc1Cl,,,,,not readily biodegradable,,,,
CC(C)(O)CCCC1=CCC(C=O)CC1 (stereo not given),-30,,,,readily biodegradable,,,,
C=CC[Si](C)(C)Cl,,111,,,,,,,
COC(=O)c1cc(Oc2ccc(C(F)(F)F)cc2Cl)ccc1[N+](=O)[O-],,,,-7.12,,,,,
[N-]=[N+]=Nc1ccc(Br)cc1,20,,,,,,,,
COc1ccc2c(c1)O[C@H]1c3ccc(O)cc3OC[C@@H]21,128,,,,,,,,
C1CN2CCC1CC2,158,,,0.282,,,,,
c1ccc(C2=NNCC2)cc1,45.8,,,,,,,,
CC(Cl)(Cl)Cl,-30.4,74,,2.09,not readily biodegradable,2.7,,1.95,-1.76
Oc1cc(Cl)cc(Br)c1,70,256,,,,,,,
CC(C)c1ccccc1,-96,152,1.18,0.653,readily biodegradable,3.98,,,-1.94
Nc1ccc(N)c2ccccc12,120,,,,,,,,

# Same assay, conditions: fish
SMILES,log10 BCF,log10 biotransformation half-life (days)
Brc1ccc(Oc2ccc(Br)cc2Br)cc1,5.83,1.25
CCCCC(CC)CN1C(=O)C2C(C1=O)C1(C(C)C)C=CC2(C)CC1 (stereo not given),2.97,0.31
O=C(O)C(Br)C(Br)C(=O)O (stereo not given),0.81,
c1ccc(Cc2ccccc2)cc1,2.94,
ClCC(Cl)Cl,0.7,-1.01
Clc1ccccc1NNc1ccccc1Cl,3.66,
O=[N+]([O-])c1ccc(Cl)c(S(=O)(=O)[O][Na])c1,0.48,
CC(Cl)(Cl)Cl,0.7,-1.39
CC(C)c1ccccc1,1.55,
